# Reference: patent US20100004283A1, “4-[(3-FLUOROPHENOXY)PHENYLMETHYL]PIPERIDINE METHANESULFONATE: USES, PROCESS OF SYNTHESIS AND PHARMACEUTICAL COMPOSITIONS” (priority 2006, published 2010)
# Key:
# [1] = Studies of stability under forced conditions; format: physicochemical
# Method: Additionally, the compound of formula I has shown excellent stability properties. The compound of formula I has remained stable for at least 6 months in studies of stability under forced conditions at 50 and 60° C., as well as at 40° C. and 75% humidity. This represents more than 2 years of stability under normal conditions.
# 5-HTP-induced syndrome = settings: mice, orally administered, acute; cited from earlier work
# [2] = tested on: immobility in the tail suspension test; settings: mice, orally administered, acute; cited from earlier work
Structure (SMILES),time remained stable ([1]; 40° C. and 75% humidity),time remained stable ([1]; forced conditions at 50° C.),time remained stable ([1]; forced conditions at 60° C.),stability under normal conditions ([1]; represented by the forced-condition results),"minimal effective dose (MED), potentiation of the 5-HTP-induced syndrome (5-HTP-induced syndrome) [mg/kg]","MED, reduction of the immobility in the tail suspension test [2] [mg/kg]"
"CS(=O)(=O)O.Fc1cccc(OC(c2ccccc2)C2CCNCC2)c1 (stereo not drawn) [compound of formula I, 4-[(3-fluorophenoxy)phenylmethyl]piperidine methanesulfonic acid salt]",at least 6 months,at least 6 months,at least 6 months,more than 2 years,,
Fc1cccc(O[C@H](c2ccccc2)C2CCNCC2)c1 [(S)-4-[(3-fluorophenoxy)phenylmethyl]piperidine],,,,,10,10
